Experimental data published in patent US12596108B2, “Automated lipid exchange-mass spectrometry systems and methods” (ARIZONA BOARD OF REGENTS ON BEHALF OF THE UNIVERSITY OF …, priority 2020, dated 2026).

Molecular target: T1, AmtB, an E. coli ammonia channel (Escherichia coli, UniProt P69681)
T1 construct: HIS (polyhistidine) (N, cleaved yes); MBP (N, cleaved yes); TEV site (N, cleaved yes); made in house; host or cells: E. coli
Assay: Lipid exchange-mass spectrometry (LX-MS) between AmtB nanodiscs and tagged empty nanodiscs
Assay type: binding
Details: for optimal ratio for AmtB POPC/POPG (isolipid point) / lipid preference of AmtB (in words): LX-MS; for lipid preference of AmtB (in words) / isolipid point (mole fraction where Xp−Xt=0): POPC/POPG nanodiscs; for isolipid point (mole fraction where Xp−Xt=0): exchange at room temperature (21-23° C.) over 2.8 days, sigmoidal fit of Xt versus Xp−Xt
Description: AmtB, an E. coli ammonia channel, was incorporated into untagged nanodiscs with 50/50 1-palmitoyl-2-oleoyl-sn-glycero-3-phosphocholine (POPC)/1-palmitoyl-2-oleoyl-sn-glycero-3-phospho-(1′-racglycerol) (POPG). Polyhistidine-tagged empty nanodiscs without AmtB were also prepared at various POPC/POPG ratios ranging from 0 to 100% POPC. In one embodiment, the ratios were 0%, 20%, 40%, 50%, 60%, 80%, and 100% POPC Tagged empty nanodiscs were mixed with untagged AmtB nanodiscs, and the mixture was allowed to exchange at room temperature (21-23° C.) over 2.8 days. After exchange, internal standards containing PC and PG lipids with different tail lengths were added, and the total lipid mole fraction of POPC, Xt, was measured (tagged and untagged) by direct infusion MS. Then, the tagged empty nanodiscs were removed by passing the mixture over immobilized metal affinity chromatography (IMAC) beads, and the untagged AmtB nanodiscs were measured alone to determine the lipid mole fraction in the membrane protein nanodiscs, Xp. Preliminary experiments confirmed that the exchange was within experimental error (typically 2-4% absolute mole fraction) by 2.8 days, but a full examination of kinetics was not performed due to limited amounts of sample.
At high total POPC, AmtB shifted the equilibrium to acquire more POPG in the AmtB nanodiscs. Conversely, at low POPC levels, AmtB shifted the equilibrium to enrich the AmtB nanodiscs in POPC.
After establishing that AmtB remodels the local membrane environment, Xt versus Xp−Xt was fit to a sigmoidal curve and the x-intercept where Xp−Xt=0 was determined. At this mole fraction, which is termed the isolipid point, the lipid composition of the membrane protein nanodiscs is the same as the empty nanodiscs. The composition of the annular lipids matches the bulk lipid bilayer at the isolipid point.
The 50% POPC AmtB nanodiscs were mixed with empty nanodiscs assembled with the polyhistidine tagged MSP1E3D1 in POPC/(POPC+POPG) mole fractions of 0, 20, 40, 60, 80, or 100% at a 1:1 molar ratio and a final concentration of 2.3 μM AmtB nanodiscs. To extend the titration to a lower total POPC mole fraction (Xt), the AmtB nanodiscs were mixed with 0% POPC empty nanodiscs at a 1:2.6 molar ratio while keeping the AmtB nanodiscs at 2.3 μM. The mixtures were incubated at room temperature (21-23° C.) for 2.8 days to allow the lipid exchange to reach equilibrium. […] Control experiments were also performed using 50% POPC untagged empty nanodiscs mixed with empty nanodiscs assembled with the polyhistidine-tagged MSP1E3D1 in POPC/(POPC+POPG) mole fractions of 0, 20, 40, 60, 80, or 100% at a 1:1 molar ratio and a final concentration of 2.3 μM MSP as well as at a 1:2.6 molar ratio with 0% nanodiscs.
After exchanging, tagged empty nanodiscs and untagged (either empty or AmtB) nanodiscs were separated by IMAC using a Ni-NTA His SpinTrap (GE Healthcare). Because small exchange volumes of roughly 16 μL were used, around ⅓ of the 100 μL column volume was removed for a final column volume around 66 μL. The SpinTrap was prepared by three washes of 450 μL loading buffer (20 mM imidazole, 0.2 M ammonium acetate, pH 7.6) to equilibrate the column. Prior to addition to the beads, the imidazole concentration of the exchange mixture was adjusted to 20 mM by adding a 1 M imidazole solution (pH 7.6 adjusted with acetic acid) to limit the non-specific binding of the untagged nanodiscs. Then, the exchange reaction mixture was added to the IMAC beads and allowed to incubate for 1-2 minutes at 4° C. The flow-through was removed by centrifugation at 100 g for 45 seconds, and extra loading buffer of 20 μL was added to the column and washed under the same centrifugation procedures. […] Thus, the first wash was collected for MS analysis to maximize the lipid concentration. Around 20 μL was typically recovered. After separation, the His SpinTrap was cleaned with three washes of 450 μL elution buffer (400 mM imidazole, 0.2 M ammonium acetate, pH 7.8). […]

T1 sequence (P69681 23-428): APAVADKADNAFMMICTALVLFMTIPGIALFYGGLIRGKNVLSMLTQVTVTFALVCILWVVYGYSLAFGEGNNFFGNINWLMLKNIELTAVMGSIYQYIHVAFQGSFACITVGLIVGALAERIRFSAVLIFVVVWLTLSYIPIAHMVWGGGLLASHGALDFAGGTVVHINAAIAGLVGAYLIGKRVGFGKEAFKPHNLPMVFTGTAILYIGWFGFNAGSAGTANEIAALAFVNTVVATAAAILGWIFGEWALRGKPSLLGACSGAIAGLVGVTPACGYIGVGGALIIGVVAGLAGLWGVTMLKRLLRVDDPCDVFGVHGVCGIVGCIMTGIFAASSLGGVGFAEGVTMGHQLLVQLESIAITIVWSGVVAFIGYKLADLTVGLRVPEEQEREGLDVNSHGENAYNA

Row | SMILES | optimal ratio for AmtB POPC/POPG (isolipid point) | lipid preference of AmtB (in words) | isolipid point (mole fraction where Xp−Xt=0)
1 | CCCCCCCC/C=C\CCCCCCCC(=O)O[C@H](COC(=O)CCCCCCCCCCCCCCC)COP(=O)(O)OCC(O)CO (mixture of isomers) [POPG, 1-palmitoyl-2-oleoyl-sn-glycero-3-phospho-(1′-racglycerol)] | 76 | clear preference for POPG | 76±2%
2 | CCCCCCCC/C=C\CCCCCCCC(=O)O[C@H](COC(=O)CCCCCCCCCCCCCCC)COP(=O)([O-])OCC[N+](C)(C)C [POPC, 1-palmitoyl-2-oleoyl-sn-glycero-3-phosphocholine] | 24 | some affinity for POPC | 24±2%
